Drawing on patent publication US10112955B2, “Isoindoline, azaisoindoline, dihydroindenone and dihydroazaindenone inhibitors of Mnk1 and Mnk2” (eFFECTOR THERAPEUTICS, INC., priority 2015, dated 2018), this text covers IC50 for 26 compounds.

Where a name gives a salt, the structure may show the parent alone.

The assay relates to Phosphorylated eIF4E. Kind of assay: peIF4E Signaling Cellular Assay (CisBio peIF4E HTRF). As to conditions: cells incubated with compound for 2 hrs at 37° C., 12-point curve. Type of assay: cell-based. Here is the method: Phosphorylated eIF4E is assayed using the CisBio peIF4E HTRF® assay kit (CisBio, catalogue No. 64EF4PEG). Cells are plated in 96-well tissue-culture treated plate in appropriate growth medium (90 μL). Compounds (10×) are diluted using 3-fold serial dilutions in cell culture medium and added to cells. Plates are incubated for 2 hrs at 37° C. The cell supernatant is carefully removed either by aspirating supernatant or by flicking the plate. Immediately 50 μL of supplemented lysis buffer (1×) is added and incubated for at least 30 minutes at room temperature under shaking. After homogenization by pipeting up and down, 16 μL of cell lysate is transferred from the 96-well cell-culture plate to a 384-well small volume white plate. 4 μL of premixed antibody solutions (vol/vol) is prepared in the detection buffer and added. The plate is covered with a plate sealer and incubated overnight at room temperature. The fluorescence emissions at two different wavelengths are read (665 nm and 620 nm) on a Wallac Victor2. Emission ratios are converted into percent inhibitions and imported into GraphPad Prism software. […] IC50 values are determined using a nonlinear regression model available in GraphPad Prism 5.
(In general: TR-FRET usually uses a lanthanide donor and a delayed reading to cut background.)

A word on the IC50: it is the point on the concentration scale where inhibition reaches its midpoint. On to `COc1c(N)ncnc1Nc1cc(C)c2c(c1)C1(CCN(CC(F)F)CC1)NC2=O` [Cpd. No. 69, 6-((6-amino-5-methoxypyrimidin-4-yl)amino)-1′-(2,2-difluoroethyl)-4-methylspiro[isoindoline-1,4′-piperidin]-3-one], for which the IC50 lay in the range of 50 to 1000 nM.

As to `Cc1cc(Nc2ncnc(N)c2C(F)(F)F)cc2c1C(=O)NC21CCCCC1` [Cpd. No. 80, 6′-((6-amino-5-(trifluoromethyl)pyrimidin-4-yl)amino)-4′-methylspiro[cyclohexane-1,1′-isoindolin]-3′-one], the IC50 was in the range of 50 to 1000 nM.

In the case of `Cc1cc(Nc2ncnc(N)c2C#N)cc2c1C(=O)NC21CCCCC1` [Cpd. No. 77, 4-amino-6-((4′-methyl-3′-oxospiro[cyclohexane-1,1′-isoindolin]-6′-yl)amino)pyrimidine-5-carbonitrile], the IC50 is less than 50 nM.

For the compound `COc1cncnc1Nc1cc(C)c2c(c1)C1(CCN(C)CC1)NC2=O` [Cpd. No. 60, 6-((5-methoxypyrimidin-4-yl)amino)-1′,4-dimethylspiro [isoindoline-1,4′-piperidin]-3-one], the IC50 was 50 to 1000 nM.

Consider `Cc1cc(Nc2ncnc3[nH]ccc23)cc2c1C(=O)NC21CCCCC1` [Cpd. No. 75, 6′-((7H-pyrrolo[2,3-d]pyrimidin-4-yl)amino)-4′-methylspiro[cyclohexane-1,1′-isoindolin]-3′-one], for which the IC50 was less than 50 nM.

On to `Cc1cc(Nc2ncnc(N)c2OCCN)cc2c1C(=O)NC21CCCCC1` [Cpd. No. 81, 6′-((6-amino-5-(2-aminoethoxy)pyrimidin-4-yl)amino)-4′-methylspiro[cyclohexane-1,1′-isoindolin]-3′-one hydrochloride], for which the IC50 lay within 50 to 1000 nM.

In the case of `CCc1cc(Nc2ncnc(N)c2C)cc2c1C(=O)NC21CCCCC1` [Cpd. No. 90, 6′-((6-amino-5-methylpyrimidin-4-yl)amino)-4′-ethylspiro [cyclohexane-1,1′-isoindolin]-3′-one], the IC50 was 50 to 1000 nM.

On to `Cc1cc(Nc2ncnc(N)c2S(C)(=O)=O)cc2c1C(=O)NC21CCCCC1` [Cpd. No. 86, 6′-((6-amino-5-(methylsulfonyl)pyrimidin-4-yl)amino)-4′-methylspiro[cyclohexane-1,1′-isoindolin]-3′-one], for which the IC50 lay in the range of 50 to 1000 nM.

Turning to `Cc1cc(Nc2ncnc(N)c2C)cc2c1C(=O)NC21CCOCC1` [Cpd. No. 74, 6-((6-amino-5-methylpyrimidin-4-yl)amino)-4-methyl-2′,3′,5′,6′-tetrahydrospiro[isoindoline-1,4′-pyran]-3-one], the IC50 was 50 to 1000 nM.

Consider `Cc1cc(Nc2ncnc(N)c2C)cc2c1C(=O)NC2` [Cpd. No. 106, 5-((6-amino-5-methylpyrimidin-4-yl)amino)-7-methylisoindolin-1-one], for which the IC50 was in the range of 1000 to 100000 nM.

With `Cc1c(N)ncnc1Nc1cc(C(F)(F)F)c2c(c1)C1(CCCCC1)NC2=O` [Cpd. No. 79, 6′-((6-amino-5-methylpyrimidin-4-yl)amino)-4′-(trifluoromethyl)spiro[cyclohexane-1,1′-isoindolin]-3′-one], the IC50 lay within 50 to 1000 nM.

For the compound `CSc1c(N)ncnc1Nc1cc(C)c2c(c1)C1(CCCCC1)NC2=O` [Cpd. No. 85, 6′-((6-amino-5-(methylthio)pyrimidin-4-yl)amino)-4′-methylspiro[cyclohexane-1,1′-isoindolin]-3′-one trifluoroacetic acid salt], the IC50 was 50 to 1000 nM.

For the compound `Cc1cc(Nc2ncncc2C#N)cc2c1C(=O)NC21CCN(CC(F)F)CC1` [Cpd. No. 67, 4-((1′-(2,2-difluoroethyl)-4-methyl-3-oxospiro[isoindoline-1,4′-piperidin]-6-yl)amino)pyrimidine-5-carbonitrile], the IC50 is 1000 to 100000 nM.

With `Cc1cc(Nc2ncncc2C#N)cc2c1C(=O)NC21CCN(C)CC1` [Cpd. No. 61, 4-((1′,4-dimethyl-3-oxospiro[isoindoline-1,4′-piperidin]-6-yl)amino)pyrimidine-5-carbonitrile trifluoroacetic acid salt], the IC50 is 1000 to 100000 nM.

For `Cc1c(N)ncnc1Nc1cc(O)c2c(c1)C1(CCCCC1)NC2=O` [Cpd. No. 92, 6′-((6-amino-5-methylpyrimidin-4-yl)amino)-4′-hydroxyspiro[cyclohexane-1,1′-isoindolin]-3′-one], the IC50 was 1000 to 100000 nM.

With `Cc1cc(Nc2ncnc(N)c2Cl)nc2c1C(=O)NC21CCCCC1` [Cpd. No. 73, 2′-((6-amino-5-chloropyrimidin-4-yl)amino)-4′-methylspiro[cyclohexane-1,7′-pyrrolo[3,4-b]pyridin]-5′(6′H)-one], the half-inhibitory concentration (IC50) was less than 50 nM.

On to `Cc1cc(Nc2ncnc(N)c2C)cc2c1C(=O)NC21CCN(C)CC1` [Cpd. No. 62, 6-((6-amino-5-methylpyrimidin-4-yl)amino)-1′,4-dimethylspiro[isoindoline-1,4′-piperidin]-3-one], for which the IC50 was in the range of 1000 to 100000 nM.

For the compound `Cc1cc(Nc2ncnc(N)c2C)c(Cl)c2c1C(=O)NC21CCCCC1` [Cpd. No. 96, 6′-((6-amino-5-methylpyrimidin-4-yl)amino)-7′-chloro-4′-methylspiro[cyclohexane-1,1′-isoindolin]-3′-one], the IC50 is 1000 to 100000 nM.

Take `Cc1cc(Nc2ncnc(N)c2C)c(O)c2c1C(=O)NC21CCCCC1` [Cpd. No. 93, 6′-((6-amino-5-methylpyrimidin-4-yl)amino)-7′-hydroxy-4′-methylspiro[cyclohexane-1,1′-isoindolin]-3′-one]: the IC50 was in the range of 50 to 1000 nM.

`Cc1cc(Nc2ncnc(N)c2C)cc2c1C(=O)NC21CCN(CC(F)F)CC1` [Cpd. No. 66, 6-((6-amino-5-methylpyrimidin-4-yl)amino)-1′-(2,2-difluoroethyl)-4-methylspiro[isoindoline-1,4′-piperidin]-3-one]: the IC50 lay within 50 to 1000 nM.

With `Cc1cc(Nc2ncnc(N)c2C)cc2c1C(=O)CC21CCCCC1` [Cpd. No. 110, 6′-((6-amino-5-methylpyrimidin-4-yl)amino)-4′-methylspiro[cyclohexane-1,1′-inden]-3′(2′H)-one], the IC50 was in the range of 50 to 1000 nM.

Turning to `CCOc1c(N)ncnc1Nc1cc(C)c2c(c1)C1(CCCCC1)NC2=O` [Cpd. No. 76, 6′-((6-amino-5-ethoxypyrimidin-4-yl)amino)-4′-methylspiro[cyclohexane-1,1′-isoindolin]-3′-one], the IC50 fell in the range of 50 to 1000 nM.

Take `Cc1cc(Nc2ncnc(N)c2OCCCN)cc2c1C(=O)NC21CCCCC1` [Cpd. No. 87, 6′-((6-amino-5-(3-aminopropoxy)pyrimidin-4-yl)amino)-4′-methylspiro[cyclohexane-1,1′-isoindolin]-3′-one hydrochloride salt]: the IC50 lay within 50 to 1000 nM.

Regarding `COc1c(N)ncnc1Nc1cc(C)c2c(c1)C1(CCN(C)CC1)NC2=O` [Cpd. No. 68, 6-((6-amino-5-methoxypyrimidin-4-yl)amino)-1′,4-dimethylspiro[isoindoline-1,4′-piperidin]-3-one], the IC50 lay in the range of 50 to 1000 nM.

Take `Cc1c(N)ncnc1Nc1cc(F)c2c(c1)C1(CCCCC1)NC2=O` [Cpd. No. 89, 6′-((6-amino-5-methylpyrimidin-4-yl)amino)-4′-fluorospiro[cyclohexane-1,1′-isoindolin]-3′-one]: the IC50 was in the range of 50 to 1000 nM.

Take `Cc1c(N)ncnc1Nc1cc(C#N)c2c(c1)C1(CCCCC1)NC2=O` [Cpd. No. 91, 6′-((6-amino-5-methylpyrimidin-4-yl)amino)-3′-oxospiro[cyclohexane-1,1′-isoindoline]-4′-carbonitrile]: the IC50 is 1000 to 100000 nM.
